# According to PubChem BioAssay (NCI):
#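 Five concentrations, 48 hours, 96-well plates. TGI: concentration producing complete growth inhibition.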
# What was measured:
# Experiment in all cases: NCI anticancer screen, dose series, 48 h
# 786-0 renal = tested on: 786-0 renal
# A498 renal = tested on: A498 renal
# A549 NSCLC = tested on: A549 NSCLC
# BT-549 breast = tested on: BT-549 breast
# CAKI-1 renal = tested on: CAKI-1 renal
# CCRF-CEM leukemia = tested on: CCRF-CEM leukemia
# COLO 205 colon = tested on: COLO 205 colon
# DU-145 prostate = tested on: DU-145 prostate
# EKVX NSCLC = tested on: EKVX NSCLC
# HCC-2998 colon = tested on: HCC-2998 colon
# HCT-116 colon = tested on: HCT-116 colon
# HCT-15 colon = tested on: HCT-15 colon
# HL-60(TB) leukemia = tested on: HL-60(TB) leukemia
# HOP-62 NSCLC = tested on: HOP-62 NSCLC
# HOP-92 NSCLC = tested on: HOP-92 NSCLC
# HS 578T breast = tested on: HS 578T breast
# HT29 colon = tested on: HT29 colon
# IGROV1 ovarian = tested on: IGROV1 ovarian
# K-562 leukemia = tested on: K-562 leukemia
# KM12 colon = tested on: KM12 colon
# LOX IMVI melanoma = tested on: LOX IMVI melanoma
# M14 melanoma = tested on: M14 melanoma
# MALME-3M melanoma = tested on: MALME-3M melanoma
# MCF7 breast = tested on: MCF7 breast
# MDA-MB-231 breast = tested on: MDA-MB-231 breast
# MDA-MB-435 = tested on: MDA-MB-435
# MDA-N = tested on: MDA-N
# MOLT-4 leukemia = tested on: MOLT-4 leukemia
# NCI-H226 lung = tested on: NCI-H226 lung
# NCI-H23 lung = tested on: NCI-H23 lung
# NCI-H460 lung = tested on: NCI-H460 lung
# NCI-H522 lung = tested on: NCI-H522 lung
# NCI/ADR-RES ovarian = tested on: NCI/ADR-RES ovarian
# OVCAR-3 ovarian = tested on: OVCAR-3 ovarian
# OVCAR-4 ovarian = tested on: OVCAR-4 ovarian
# OVCAR-5 ovarian = tested on: OVCAR-5 ovarian
# OVCAR-8 ovarian = tested on: OVCAR-8 ovarian
# PC-3 prostate = tested on: PC-3 prostate
# RPMI-8226 leukemia = tested on: RPMI-8226 leukemia
# RXF 393 renal = tested on: RXF 393 renal
# SF-268 CNS = tested on: SF-268 CNS
# SF-295 CNS = tested on: SF-295 CNS
# SF-539 CNS = tested on: SF-539 CNS
# SK-MEL-2 melanoma = tested on: SK-MEL-2 melanoma
# SK-MEL-28 melanoma = tested on: SK-MEL-28 melanoma
# SK-MEL-5 melanoma = tested on: SK-MEL-5 melanoma
# SK-OV-3 ovarian = tested on: SK-OV-3 ovarian
# SN12C renal = tested on: SN12C renal
# SNB-19 CNS = tested on: SNB-19 CNS
# SNB-75 CNS = tested on: SNB-75 CNS
# SR leukemia = tested on: SR leukemia
# SW-620 colon = tested on: SW-620 colon
# T-47D breast = tested on: T-47D breast
# TK-10 renal = tested on: TK-10 renal
# U251 CNS = tested on: U251 CNS
# UACC-257 melanoma = tested on: UACC-257 melanoma
# UACC-62 melanoma = tested on: UACC-62 melanoma
# UO-31 renal = tested on: UO-31 renal
# ACHN renal = tested on: ACHN renal
structure (smiles),measurement,setting,value
COc1ccc2c(=O)c3ccoc3n(CC=C(C)C)c2c1,TGI,786-0 renal,> 100 µM
same,TGI,A498 renal,> 100 µM
same,TGI,A549 NSCLC,> 100 µM
same,TGI,BT-549 breast,> 100 µM
same,TGI,CAKI-1 renal,9.83 µM
same,TGI,CCRF-CEM leukemia,> 100 µM
same,TGI,COLO 205 colon,> 100 µM
same,TGI,DU-145 prostate,> 100 µM
same,TGI,EKVX NSCLC,> 100 µM
same,TGI,HCC-2998 colon,> 100 µM
same,TGI,HCT-116 colon,> 100 µM
same,TGI,HCT-15 colon,> 100 µM
same,TGI,HL-60(TB) leukemia,> 96.6 µM
same,TGI,HOP-62 NSCLC,> 100 µM
same,TGI,HOP-92 NSCLC,> 63.7 µM
same,TGI,HS 578T breast,> 100 µM
same,TGI,HT29 colon,> 100 µM
same,TGI,IGROV1 ovarian,> 100 µM
same,TGI,K-562 leukemia,> 100 µM
same,TGI,KM12 colon,> 100 µM
same,TGI,LOX IMVI melanoma,> 100 µM
same,TGI,M14 melanoma,> 100 µM
same,TGI,MALME-3M melanoma,18.7 µM
same,TGI,MCF7 breast,> 100 µM
same,TGI,MDA-MB-231 breast,> 100 µM
same,TGI,MDA-MB-435,> 100 µM
same,TGI,MDA-N,> 100 µM
same,TGI,MOLT-4 leukemia,> 100 µM
same,TGI,NCI-H226 lung,> 100 µM
same,TGI,NCI-H23 lung,> 100 µM
same,TGI,NCI-H460 lung,> 100 µM
same,TGI,NCI-H522 lung,> 33.2 µM
same,TGI,NCI/ADR-RES ovarian,76.4 µM
same,TGI,OVCAR-3 ovarian,> 100 µM
same,TGI,OVCAR-4 ovarian,> 100 µM
same,TGI,OVCAR-5 ovarian,> 100 µM
same,TGI,OVCAR-8 ovarian,> 100 µM
same,TGI,PC-3 prostate,> 100 µM
same,TGI,RPMI-8226 leukemia,> 100 µM
same,TGI,RXF 393 renal,> 81.1 µM
same,TGI,SF-268 CNS,> 100 µM
same,TGI,SF-295 CNS,> 100 µM
same,TGI,SF-539 CNS,> 100 µM
same,TGI,SK-MEL-2 melanoma,> 100 µM
same,TGI,SK-MEL-28 melanoma,> 100 µM
same,TGI,SK-MEL-5 melanoma,> 69.3 µM
same,TGI,SK-OV-3 ovarian,> 100 µM
same,TGI,SN12C renal,> 100 µM
same,TGI,SNB-19 CNS,> 100 µM
same,TGI,SNB-75 CNS,> 100 µM
same,TGI,SR leukemia,> 100 µM
same,TGI,SW-620 colon,> 100 µM
same,TGI,T-47D breast,> 100 µM
same,TGI,TK-10 renal,> 100 µM
same,TGI,U251 CNS,> 100 µM
same,TGI,UACC-257 melanoma,> 100 µM
same,TGI,UACC-62 melanoma,> 100 µM
same,TGI,UO-31 renal,> 100 µM
OC1(c2ccccc2)CC2CCC(C1)N2CCCC1(c2ccc(F)cc2)OCCO1 (stereo unspecified),TGI,786-0 renal,32.4 µM
same,TGI,A498 renal,> 100 µM
same,TGI,A549 NSCLC,> 100 µM
same,TGI,ACHN renal,> 100 µM
same,TGI,BT-549 breast,> 100 µM
same,TGI,CAKI-1 renal,> 100 µM
same,TGI,CCRF-CEM leukemia,> 100 µM
same,TGI,COLO 205 colon,> 100 µM
same,TGI,DU-145 prostate,> 100 µM
same,TGI,EKVX NSCLC,> 100 µM
same,TGI,HCT-116 colon,> 100 µM
same,TGI,HCT-15 colon,> 100 µM
same,TGI,HL-60(TB) leukemia,> 100 µM
same,TGI,HOP-62 NSCLC,> 100 µM
same,TGI,HS 578T breast,> 100 µM
same,TGI,HT29 colon,> 100 µM
same,TGI,IGROV1 ovarian,> 100 µM
same,TGI,K-562 leukemia,> 100 µM
same,TGI,LOX IMVI melanoma,> 100 µM
same,TGI,M14 melanoma,44.9 µM
same,TGI,MALME-3M melanoma,> 100 µM
same,TGI,MCF7 breast,> 100 µM
same,TGI,MDA-MB-231 breast,> 100 µM
same,TGI,MDA-MB-435,> 100 µM
same,TGI,MDA-N,> 100 µM
same,TGI,MOLT-4 leukemia,> 100 µM
same,TGI,NCI-H23 lung,> 100 µM
same,TGI,NCI-H522 lung,> 100 µM
same,TGI,NCI/ADR-RES ovarian,29.1 µM
same,TGI,OVCAR-3 ovarian,> 100 µM
same,TGI,OVCAR-4 ovarian,> 100 µM
same,TGI,OVCAR-5 ovarian,> 100 µM
same,TGI,OVCAR-8 ovarian,30.2 µM
same,TGI,PC-3 prostate,> 100 µM
same,TGI,RPMI-8226 leukemia,> 100 µM
same,TGI,RXF 393 renal,> 100 µM
same,TGI,SF-268 CNS,> 100 µM
same,TGI,SF-295 CNS,10.9 µM
same,TGI,SF-539 CNS,> 100 µM
same,TGI,SK-MEL-2 melanoma,> 100 µM
same,TGI,SK-MEL-28 melanoma,> 100 µM
same,TGI,SK-MEL-5 melanoma,44.3 µM
same,TGI,SK-OV-3 ovarian,> 100 µM
same,TGI,SN12C renal,> 100 µM
same,TGI,SNB-75 CNS,> 100 µM
same,TGI,SR leukemia,> 100 µM
same,TGI,SW-620 colon,> 100 µM
same,TGI,T-47D breast,> 100 µM
same,TGI,TK-10 renal,> 100 µM
same,TGI,U251 CNS,> 100 µM
same,TGI,UACC-257 melanoma,73.5 µM
same,TGI,UACC-62 melanoma,> 100 µM
same,TGI,UO-31 renal,> 100 µM
